# Molecular target: T1, human GABA A receptor α5β3γ2 (GABA Aa5) (Homo sapiens, UniProt P18507+P31644)
# T1 construct: expressed in transfected cells; host or cells: HEK293 cells, transiently transfected; membranes prepared
# Assay: [3H]flumazenil competition binding, HEK293 cells expressing human receptors
# Conditions: not given
# Experimental: The ability of compounds present invention to bind to GABA A receptor subtypes was determined by competition for [^3H]flumazenil (85 Ci/mmol; Roche) binding to HEK293 cells expressing rat (stably transfected) or human (transiently transfected) receptors of composition α1β2/3γ2, α2β3γ2, α3β3γ2 and α5β3γ2.
# Cell pellets were suspended in Krebs-tris buffer (4.8 mM KCl, 1.2 mM CaCl2, 1.2 mM MgCl2, 120 mM NaCl, 15 mM Tris; pH 7.5; binding assay buffer), homogenized by polytron for ca. 20 sec on ice and centrifuged for 60 min at 4° C. (50000 g; Sorvall, rotor: SM24=20000 rpm). The cell pellets were resuspended in Krebs-tris buffer and homogenized by polytron for ca. 15 sec on ice. Protein was measured (Bradford method, Bio-Rad) and aliquots of 1 mL were prepared and stored at −80° C.
# Assays were incubated to equilibrium for 1 hour at 4° C. and harvested onto GF/C uni-filters (Packard) by filtration using a Packard harvester and washing with ice-cold wash buffer (50 mM Tris; pH 7.5). After drying, filter-retained radioactivity was detected by liquid scintillation counting.
# Ki values were calculated using Excel-Fit (Microsoft) and are the means of two determinations.
# Representative test results, obtained by the above described assay measuring binding affinity to HEK293 cells expressing human (h) receptors, are shown in Table 1 below.
row,SMILES,Ki [nM]
1,"CC(=O)c1ccc(-n2cnc(-c3c(-c4ccccc4F)nnn3C)c2)cc1 [Example 10, 1-(4-(4-(4-(2-Fluorophenyl)-1-methyl-1H-1,2,3-triazol-5-yl)-1H-imidazol-1-yl)phenyl)ethanone]",29.6

# Same assay, conditions: displacement of [3H]flumazenil 0.5 nM; HEK293 transiently transfected human receptors; means of two determinations; read-out: hKi (GABA Aa5)
row,SMILES,Ki [nM]
1,"COC(=O)c1ccc(-n2cnc(-c3c(C)nnn3-c3ccccc3F)c2)cc1 [Example 33, Methyl 4-(4-(1-(2-fluorophenyl)-4-methyl-1H-1,2,3-triazol-5-yl)-1H-imidazol-1-yl)benzoate]",34.5
2,"Cc1nnn(-c2ccccc2F)c1-c1cn(-c2ccc(C(=O)N3CC4(COC4)C3)cn2)cn1 [Example 49, (6-(4-(1-(2-Fluorophenyl)-4-methyl-1H-1,2,3-triazol-5-yl)-1H-imidazol-1-yl)pyridin-3-yl)(2-oxa-6-azaspiro[3.3]heptan-6-yl)methanone]",90
3,"CC(C)NC(=O)c1ccc(-n2cnc(-c3c(-c4ccc(F)cc4)nnn3C)c2)cc1 [Example 3, 4-{4-[5-(4-Fluoro-phenyl)-3-methyl-3H-[1,2,3]triazol-4-yl]-imidazol-1-yl}-N-isopropyl-benzamide]",21.1
4,"Cc1nnn(-c2ccc(F)cc2)c1-c1cn(-c2ccc(C(=O)NN3CCOCC3)cn2)cn1 [Example 45, 6-(4-(1-(4-Fluorophenyl)-4-methyl-1H-1,2,3-triazol-5-yl)-1H-imidazol-1-yl)-N-morpholinonicotinamide]",69.4
5,"CC(=O)c1ccc(-n2cnc(-c3c(-c4ccc(F)cc4)nnn3C)c2)cc1 [Example 1, 1-(4-{4-[5-(4-Fluoro-phenyl)-3-methyl-3H-[1,2,3]triazol-4-yl]-imidazol-1-yl}-phenyl)-ethanone]",27.2
6,"Cc1nnn(-c2ccccc2F)c1-c1cn(-c2ccc(C(=O)NN3CCOCC3)cn2)cn1 [Example 51, 6-(4-(1-(2-Fluorophenyl)-4-methyl-1H-1,2,3-triazol-5-yl)-1H-imidazol-1-yl)-N-morpholinonicotinamide]",50.5
7,"Cc1nnn(-c2ccccc2F)c1-c1cn(-c2ccc(C(=O)NC(C)C)cn2)cn1 [Example 43, 6-(4-(1-(2-Fluorophenyl)-4-methyl-1H-1,2,3-triazol-5-yl)-1H-imidazol-1-yl)-N-isopropylnicotinamide]",15.1
8,"Cc1nnn(-c2ccc(F)cc2)c1-c1cn(-c2ccc(C(F)(F)F)cn2)cn1 [Example 34, 2-{4-[3-(4-Fluoro-phenyl)-5-methyl-3H-[1,2,3]triazol-4-yl]-imidazol-1-yl}-5-trifluoromethyl-pyridine]",45.6
9,"Cn1nnc(-c2ccccc2F)c1-c1cn(-c2ccc(C(=O)NC3(C)COC3)cn2)cn1 [Example 27, 6-(4-(4-(2-Fluorophenyl)-1-methyl-1H-1,2,3-triazol-5-yl)-1H-imidazol-1-yl)-N-(3-methyloxetan-3-yl)nicotinamide]",16.1
10,"Cn1nnc(-c2ccccc2F)c1-c1cn(-c2ccc([N+](=O)[O-])cc2)cn1 [Example 9, 4-(2-Fluorophenyl)-1-methyl-5-(1-(4-nitrophenyl)-1H-imidazol-4-yl)-1H-1,2,3-triazole]",76.3
11,"Cn1nnc(-c2ccccc2F)c1-c1cn(-c2ccc(C(=O)N3CC4(COC4)C3)cn2)cn1 [Example 26, (6-(4-(4-(2-Fluorophenyl)-1-methyl-1H-1,2,3-triazol-5-yl)-1H-imidazol-1-yl)pyridin-3-yl)(2-oxa-6-azaspiro[3.3]heptan-6-yl)methanone]",66.5
12,"Cn1nnc(-c2ccc(F)cc2)c1-c1cn(-c2ccc(C(=O)NC3CCOCC3)cn2)cn1 [Example 12, 6-{4-[5-(4-Fluoro-phenyl)-3-methyl-3H-[1,2,3]triazol-4-yl]-imidazol-1-yl}-N-(tetrahydropyran-4-yl)-nicotinamide]",33

# More lines, now with the values ahead:
row,Ki [nM],SMILES
1,86,"Cn1nnc(-c2ccccc2F)c1-c1cn(-c2ccc(C(=O)O)cn2)cn1 [Example 21, 6-(4-(4-(2-Fluorophenyl)-1-methyl-1H-1,2,3-triazol-5-yl)-1H-imidazol-1-yl)nicotinic acid]"
2,84.3,"Cn1nnc(-c2ccccc2F)c1-c1cn(-c2ccc(C(F)(F)F)cc2)cn1 [Example 8, 4-(2-Fluorophenyl)-1-methyl-5-(1-(4-(trifluoromethyl)phenyl)-1H-imidazol-4-yl)-1H-1,2,3-triazole]"
3,75.1,"CC(C)NC(=O)c1ccc(-n2cnc(-c3c(-c4ccccc4Cl)nnn3C)c2)nc1 [Example 18, 6-(4-(4-(2-Chlorophenyl)-1-methyl-1H-1,2,3-triazol-5-yl)-1H-imidazol-1-yl)-N-isopropylnicotinamide]"
4,68.8,"COC(=O)c1ccc(-n2cnc(-c3c(-c4ccccc4Cl)nnn3C)c2)nc1 [Example 17, Methyl 6-(4-(4-(2-chlorophenyl)-1-methyl-1H-1,2,3-triazol-5-yl)-1H-imidazol-1-yl)nicotinate]"
5,49.2,"Cc1nnn(-c2ccc(F)cc2)c1-c1cn(-c2ccc(C(F)(F)F)cc2)cn1 [Example 31, 1-(4-Fluoro-phenyl)-4-methyl-5-[1-(4-trifluoromethyl-phenyl)-1H-imidazol-4-yl]-1H-[1,2,3]triazole]"
6,35.8,"Cc1nnn(-c2ccc(F)cc2)c1-c1cn(-c2ccc(C(=O)N3CC4(COC4)C3)cn2)cn1 [Example 39, (6-(4-(1-(4-Fluorophenyl)-4-methyl-1H-1,2,3-triazol-5-yl)-1H-imidazol-1-yl)pyridin-3-yl)(2-oxa-6-azaspiro[3.3]heptan-6-yl)methanone]"
7,18.8,"Cn1nnc(-c2ccc(F)cc2)c1-c1cn(-c2ccc(C(N)=O)cc2)cn1 [Example 7, 4-{4-[5-(4-Fluoro-phenyl)-3-methyl-3H-[1,2,3]triazol-4-yl]-imidazol-1-yl}-benzamide]"

# — patent publication US8466181B2, “1,2,3-triazole-imidazole compounds” (Hoffmann-La Roche Inc., priority 2010, dated 2013)
